The subject of assay [1] is passive cutaneous anaphylaxis (PCA). The assay is described as follows: Anti-passive cutaneous anaphylaxis activity (PCA) in rats (Test Example 9). Format: in vivo. As to conditions: Rattus norvegicus, po, 10 animals. How it is done: (§1) Wistar strain rats were sensitized with ovalbumin using aluminium hydroxide gel and Bordetella Pertussis vaccine as adjuvants. Dilutions of antiserum (16-fold and 32-fold) obtained by collecting blood samples 14 days later were administered subcutaneously in the dorsal skin of the rats of the same strain at the rate of 0.1 ml per spot, and the rats were grown for 48 hours. One hour after peroral administration of the sample solution, a mixture of antigen ovalbumin and Evans-blue dye was administered to the tail venous of the animal according to the ordinary procedure. Thirty minutes later, the animals were sacrificed by exsanguination, and the areas of blue spots (long diameter×short diameter) eliciting on the portion of the antiserum injection at the dorsal skin were measured to obtain the rate of inhibition based on the average value shown by the control animals.
This test was conducted in a manner similar to that in Test Example 2, except that the dilutions of antiserum were 12- and 24-folds.

The target in a further assay is T1, hyaluronidase (Bos taurus, UniProt Q2YDK3).
T1 sequence (Q2YDK3 36-553): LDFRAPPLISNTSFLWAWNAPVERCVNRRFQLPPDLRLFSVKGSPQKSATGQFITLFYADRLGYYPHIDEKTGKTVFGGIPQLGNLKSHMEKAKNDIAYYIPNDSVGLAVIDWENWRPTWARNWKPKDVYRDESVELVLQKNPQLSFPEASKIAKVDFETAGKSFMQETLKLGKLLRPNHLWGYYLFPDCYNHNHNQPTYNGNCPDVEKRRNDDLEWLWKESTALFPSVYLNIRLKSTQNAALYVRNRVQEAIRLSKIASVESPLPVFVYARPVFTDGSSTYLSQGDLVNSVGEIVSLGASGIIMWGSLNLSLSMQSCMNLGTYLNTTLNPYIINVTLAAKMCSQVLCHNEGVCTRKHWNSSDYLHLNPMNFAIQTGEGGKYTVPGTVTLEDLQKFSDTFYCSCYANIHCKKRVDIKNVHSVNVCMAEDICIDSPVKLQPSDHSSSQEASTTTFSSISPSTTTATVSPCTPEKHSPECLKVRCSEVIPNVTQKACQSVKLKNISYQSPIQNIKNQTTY
In words: Anti-hyaluronidase activity (modified Morgan-Elson method). Format: biochemical. As to conditions: hyaluronidase 340NF unit/ml, activating agent Compound 48/80 or CaCl2; for IC50: IC50 (mM); for pIC50: read-out: IC50.

For assay [2], the system named is passive cutaneous anaphylaxis (PCA). In words: Anti-passive cutaneous anaphylaxis (PCA) activity in rats (Test Example 2). In kind it is in vivo, Wistar strain rats. Particulars: Rattus norvegicus, N 10; for inhibition in vivo at 10 mg/kg: 10 mg/kg PO; for inhibition in vivo at 50 mg/kg: 50 mg/kg PO; for inhibition in vivo at 100 mg/kg: 100 mg/kg PO. How it is done: as §1

The subject of assay [3] is experimental ulcer model (Shay). In words: Anti-ulcer activity in experimental ulcer model (Shay). In kind it is in vivo, Wistar strain male rats. The procedure: Using 5 eight-week old Wistar strain male rats of 1 group, the rats were previously fasted for […]. The compound of an amount proportionate to the body weight based on the body weight after fasting was administered intraduodenally or intraperitoneally.
Each test compound was evenly suspended or dissolved in an aqueous solution of 0.5% CMC ccntaining 0.1% Tween 80, and administered at the rate of 0.5 ml per 100 g of body weight of the animal. To the controls, only the solvent was administered.
Test was carried out in accordance with Shay's method. After 48 hours' fasting, 5 animals per group were subjected to laparotomy under ether anesthesia, the tract between pylorus of stomach and duodenum was ligated, and the solution of the compound was administered intraduodenally (id) or intraperitoneally (ip), followed by suturing the laparotomy part. Eight hours after administration of the compound liquid, each animal was sacrificed by ether anesthesia and stomach was removed. Then, evaluation on the ulcer condition on the inner surface of stomach, and determination of the amount of gastric juice, of acidity by alkali titration, and of pepsin titer based on substrate of hemoglovin were made on the stored gastric juice. With regard to the acidity, gastric juice amount, and pepsin titer, the results were shown in inhibition rate (%) based on the average value of the control groups.

Setting [4] is: read-out: Inhibition, Anti-serum Dilution: × 12.
Where [5] appears, read: read-out: Inhibition, Anti-serum Dilution: × 24.
The mark [6] stands for this setting: read-out: Average Inhibition Rate (%) Antiserum Dilution: × 16.
The mark [7] stands for this setting: read-out: Average Inhibition Rate (%) Antiserum Dilution: × 32.

pIC50: −log10 of the molar value. Where two headings read alike, the source gives them in different places.

Turning to `O=C(Nc1ccccc1C(=O)OC1OC(=O)c2ccccc21)C(=Cc1ccccc1)C(=O)Nc1ccccc1C(=O)OC1OC(=O)c2ccccc21` (centres unmarked) [Compound 56], the inhibition in vivo at 10 mg/kg in assay [1] (setting [4]) is 44.7%; in assay [1] (setting [5]), 43.6%. Moreover, the inhibition in vivo at 50 mg/kg in assay [1] (setting [4]) was found to be 49.7%; in assay [1] (setting [5]), 58.4%.
As to `CC(C)(C)C(=O)OCOC(=O)c1ccccc1NC(=O)C(=Cc1ccccc1)C(=O)Nc1ccccc1C(=O)OCOC(=O)C(C)(C)C` [Compound 57, di(pivaloyloxymethyl)-2,2'-[(1,3-dioxo-2-phenylmethylene-1,3-propanediyl)diimino]bisbenzoate], the inhibition in vivo at 10 mg/kg was 37% in assay [1] (setting [4]) and 30.9% in assay [1] (setting [5]). Also, the inhibition in vivo at 50 mg/kg in assay [1] (setting [4]) turned out to be 45%; in assay [1] (setting [5]), 50.1%.
The term IC50 denotes the point on the concentration scale where inhibition reaches its midpoint. Read a low IC50 as greater potency in that assay. The molecule `O=C(CC(=O)Nc1cc([N+](=O)[O-])ccc1C(=O)O)Nc1cc([N+](=O)[O-])ccc1C(=O)O` [Compound 06, 4,4'-dinitro-2,2'-[(1,3-dioxo-1,3-propanediyl)diimino]bisbenzoic acid] displayed a half-inhibitory concentration (IC50) on hyaluronidase of 0.013 mM. Moreover, in assay [2] (setting [6]), the inhibition in vivo at 10 mg/kg was 8.5%, the inhibition in vivo at 50 mg/kg came to 14.9% and the inhibition in vivo at 100 mg/kg was found to be 18.6%. In addition, in assay [2] (setting [7]), the inhibition in vivo at 10 mg/kg worked out at 11.2%, the inhibition in vivo at 50 mg/kg was 13.3% and the inhibition in vivo at 100 mg/kg was determined as 18.8%.
In the case of `Cc1oc(=O)oc1COC(=O)c1ccccc1NC(=O)C(=Cc1ccccc1)C(=O)Nc1ccccc1C(=O)OCc1oc(=O)oc1C` [Compound 59, di[(5-methyl-2-oxo-1,3-dioxole-4-yl)methyl]-2,2'-[(1,3-dioxo-2-phenylmethylene-1,3-propanediyl)diimino]bisbenzoate], in assay [1] (setting [4]), the inhibition in vivo at 10 mg/kg amounted to 22% and the inhibition in vivo at 50 mg/kg came to 65.7%. For the same molecule, in assay [1] (setting [5]), the inhibition in vivo at 10 mg/kg was determined as 25.1% and the inhibition in vivo at 50 mg/kg turned out to be 62%.
In turn, `COc1ccc(C=C(C(=O)Nc2cc([N+](=O)[O-])ccc2C(=O)O)C(=O)Nc2cc([N+](=O)[O-])ccc2C(=O)O)cc1OC` [Compound 22] had a half-maximal inhibitory concentration (IC50) on hyaluronidase of 0.008 mM. Further, the inhibition in vivo at 50 mg/kg in assay [2] (setting [6]) is 19.7%; in assay [2] (setting [7]) it was 22.6%. The results for the inhibition in vivo at 100 mg/kg in assay [2] (setting [6]) and in assay [2] (setting [7]) were 34.6% and 40%, respectively. Moreover, the “Inhibition % Gastric Acidity” value in assay [3] (id 100 mg/kg) is 9.1%; in assay [3] (id 200 mg/kg), 13.2%; in assay [3] (id 300 mg/kg), 15.7%; in assay [3] (ip 50 mg/kg) it was 38.2%. Also, the “Inhibition % secretion amount of gastric juice” value in assay [3] (id 100 mg/kg) is on record as 11.1%; in assay [3] (id 200 mg/kg), 11.6%; in assay [3] (id 300 mg/kg), 24.9%; in assay [3] (ip 50 mg/kg) it was 29.0%. The “Inhibition % total pepsin titer” value in assay [3] (id 100 mg/kg) is given as 7.2%; in assay [3] (id 200 mg/kg), 10.1%; in assay [3] (id 300 mg/kg), 8.3%; in assay [3] (ip 50 mg/kg) it was 37.2%.
A word on the pIC50: it is the negative decadic logarithm of the IC50, by convention in mol/L. Regarding `CC(=O)Nc1ccc(C=C(C(=O)Nc2ccccc2C(=O)O)C(=O)Nc2ccccc2C(=O)O)cc1` [Compound 29], the negative-log IC50 (pIC50) at hyaluronidase is 4.70. Besides, the inhibition in vivo at 100 mg/kg worked out at 3.4% in assay [2] (setting [6]) and 3.9% in assay [2] (setting [7]). In addition, the “Inhibition % Gastric Acidity” value in assay [3] (id 100 mg/kg) turned out to be 0%; in assay [3] (id 200 mg/kg) it was 0.7%. The “Inhibition % secretion amount of gastric juice” value in assay [3] (id 100 mg/kg) is 0%; in assay [3] (id 200 mg/kg) it was 0.5%. Moreover, the “Inhibition % total pepsin titer” value in assay [3] (id 100 mg/kg) and in assay [3] (id 200 mg/kg) was 0% in each case.
As to `Cc1ccc(C=C(C(=O)Nc2ccccc2C(=O)O)C(=O)Nc2ccccc2C(=O)O)cc1` [Compound 26, 2,2'-[[1,3-dioxo-2-(4-methyl)phenylmethylene-1,3-propanediyl]diimino]bisbenzoic acid], the pIC50 at hyaluronidase was 4.70. In assay [2] (setting [6]), the inhibition in vivo at 50 mg/kg is 8.3% and the inhibition in vivo at 100 mg/kg amounted to 16.4%. In assay [2] (setting [7]), the inhibition in vivo at 50 mg/kg came out at 10% and the inhibition in vivo at 100 mg/kg worked out at 19.1%.

Values taken from patent US4822791A, “Pharmaceutical compositions of-2,2-1,1-[bis-2,2'-(3,1-benzoxazin-4-one)9 ethylenes” (priority 1984, dated 1989).
